Columns and labels:
[1] = tested on: TNFα production by BAL macrophages; assay: TNFα production by macrophages from BAL of OVA-sensitized asthmatic rats; details: compared with Naive and Dx-treated rats; p<0.001 vs Asthmatic
[2] = tested on: Madin Darby canine kidney (MDCK) cells; assay: Cytotoxicity assay, visual observation, uninfected cells; format: cell-based; details: high concentration
Procedure: Uninfected cells were treated with each concentration of test compound in duplicate and run in parallel with the infected, treated wells in the CPE inhibition tests described above. The toxicity control cells (uninfected and treated) were examined under a light microscope for changes in cell appearance compared to control cells (uninfected, untreated) on the same plate as described above. The 50% cell inhibitory (cytotoxic) concentrations (IC50) were calculated by regression analysis.

[3] = tested on: Influenza A (H1N1 strain) virus; format: cell-based, Influenza type A, A/New Caledonia/20/99 (H1N1); details: high concentration, Neutral Red Uptake Assay

Which “TNFα production, BAL macrophages” value [1] does the source give for “dipalmitoyl-PE conjugated to HA [Compound XXII]” here?
The value was “no significant differences”.

What does the source list for “dipalmitoyl-phosphatidyl-ethanolamine conjugated to heparin [Compound XXIV]”?
IC50 ([2]; listed as Influenza A (H1N1 strain)): 35 µg/mL; IC50 ([2]; listed as Influenza A (H3N2 strain)): 100 µg/mL; IC50 ([2]; listed as Influenza B): 90 µg/mL; EC50 [3]: 1000 µg/mL

— patent US7504384B2 (priority 2000, dated 2009)
